According to patent publication US20100298141A1, “SUBSTITUTED PYRIDINE N-OXIDE HERBICIDES” (E. I. DU PONT DE NEMOURS AND COMPANY, priority 2007, published 2010):

How the values were obtained:
[1] = tested on: downy brome; test: Test C pre-/postemergence test; format: in vivo, Bromus tectorum
Summary of the method: (§1)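 Seeds were planted and treated preemergence with test chemical in a non-phytotoxic solvent mixture containing surfactant. Postemergence applications of the same formulation went onto plants 2 to 18 cm tall (1- to 4-leaf stage). A dash marks no test result.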

[2] = tested on: wild oat; test: Test C pre-/postemergence test; format: in vivo, Avena fatua
Summary of the method: as §1

[3] = tested on: cocklebur; test: Test C pre-/postemergence test; format: in vivo, Xanthium strumarium; details: for Plant response rating, Cocklebur: scale 0 to 100, 0 no effect, 100 complete control
Summary of the method: as §1

[4] = tested on: green foxtail; test: Test C pre-/postemergence test; format: in vivo, Setaria viridis
Summary of the method: as §1

[5] = tested on: lambsquarters; test: Test C pre-/postemergence test; format: in vivo, Chenopodium album; details: Postemergence; for Plant response rating, Lambsquarters: scale 0 to 100, 0 no effect, 100 complete control
Summary of the method: as §1

[6] = tested on: bermudagrass; test: Test C pre-/postemergence test; format: in vivo, Cynodon dactylon
Summary of the method: as §1

[7] = tested on: woolly cupgrass; test: Test C pre-/postemergence test; format: in vivo, Eriochloa villosa
Summary of the method: as §1

[8] = tested on: morningglory; test: Test A pre-/postemergence greenhouse test; format: in vivo, Ipomoea spp.; details: for Plant response rating, Morningglory: 0 to 100 scale where 0 is no effect and 100 is complete control; for Morningglory plant response rating: 0 to 100 scale
Summary of the method: (§2)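 Pre: directed soil spray on seeded loam/sand. Post: foliar spray, plants 2–10 cm, 1–2 leaf stage, applied concurrently. Vehicle: non-phytotoxic solvent + surfactant. Greenhouse ~10 d; visual injury rating vs untreated controls.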

[9] = tested on: kochia; test: Test C pre-/postemergence test; format: in vivo, Kochia scoparia
Summary of the method: as §1

[10] = tested on: blackgrass; test: Test C pre-/postemergence test; format: in vivo, Alopecurus myosuroides
Summary of the method: as §1

[11] = tested on: soybean; test: Test C pre-/postemergence test; format: in vivo, Glycine max
Summary of the method: as §1

[12] = tested on: rice; test: Test C flooded paddy test; format: in vivo, Oryza sativa; details: Flood
Summary of the method: (§3)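 In-water treatment: compound dosed into 3 cm flood over soil, water level unchanged throughout. Controls run alongside; visual assessment at day 13–15.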

[13] = tested on: yellow nutsedge; test: Test C pre-/postemergence test; format: in vivo, Cyperus esculentus
Summary of the method: as §1

[14] = tested on: redroot pigweed; test: Test A pre-/postemergence greenhouse test; format: in vivo, Amaranthus retroflexus; details: for Plant response rating, Pigweed: 0 to 100 scale where 0 is no effect and 100 is complete control; for Pigweed plant response rating: 0 to 100 scale
Summary of the method: as §2

[15] = tested on: duck salad; test: Test C flooded paddy test; format: in vivo, Heteranthera limosa; details: Flood
Summary of the method: as §3

[16] = 62 g ai/ha, Preemergence, scale 0 to 100
[17] = 125 g ai/ha, preemergence, scale 0 (no effect) to 100 (complete control)
[18] = Postemergence, 62 g ai/ha, scale 0 to 100, 0 no effect, 100 complete control
[19] = Postemergence, 125 g ai/ha, scale 0 to 100, 0 no effect, 100 complete control
[20] = Postemergence, 250 g ai/ha, scale 0 to 100, 0 no effect, 100 complete control
[21] = Preemergence, 31 g ai/ha, scale 0 to 100 (0 no effect, 100 complete control)
[22] = preemergence, 250 g ai/ha, scale 0 (no effect) to 100 (complete control)
[23] = Postemergence, 500 g ai/ha, 0 is no effect, 100 is complete control
[24] = Preemergence, 125 g ai/ha, 0 no effect, 100 complete control
[25] = 62 g ai/ha, scale 0 to 100 (0 no effect, 100 complete control)
[26] = 250 g ai/ha, scale 0 to 100, 0 no effect, 100 complete control, 13 to 15 days

## CCn1nc(C(F)(F)F)c(CS(=O)(=O)c2cc(C)cc[n+]2[O-])c1OCC(F)(F)F [Compound 64]
[1]; [16]
  Bromegrass, Downy plant response rating: 30
[1]; [17]
  Bromegrass, Downy plant response rating: 85
[1]; Postemergence, 31 g ai/ha
  Plant response rating (0 to 100), Bromegrass, Downy: 0
[1]; [18]
  Plant response rating, Bromegrass, Downy: 0
[1]; [19]
  Plant response rating, Bromegrass, Downy: 10
[1]; [20]
  Plant response rating, Bromegrass, Downy: 20
[1]; [21]
  Plant response rating, Bromegrass, Downy: 30
[1]; [22]
  Bromegrass, Downy plant response rating: 100
[2]; [16]
  Oat, Wild plant response rating: 80
[2]; [17]
  Oat, Wild plant response rating: 90
[2]; Postemergence, 31 g ai/ha
  Plant response rating (0 to 100), Oat, Wild: 0
[2]; [18]
  Plant response rating, Oat, Wild: 30
[2]; [19]
  Plant response rating, Oat, Wild: 50
[2]; [20]
  Plant response rating, Oat, Wild: 85
[2]; [21]
  Plant response rating, Oat, Wild: 50
[2]; [22]
  Oat, Wild plant response rating: 98
[3]; [16]
  Cocklebur plant response rating: 0
[3]; [17]
  Cocklebur plant response rating: 0
[3]; Postemergence, 31 g ai/ha
  Plant response rating (0 to 100), Cocklebur: 0
[3]; Postemergence, 62 g ai/ha
  Plant response rating, Cocklebur: 0
[3]; Postemergence, 125 g ai/ha
  Plant response rating, Cocklebur: 0
[3]; Postemergence, 250 g ai/ha
  Plant response rating, Cocklebur: 0
[4]; [16]
  Foxtail, Green plant response rating: 100
[4]; [17]
  Foxtail, Green plant response rating: 100
[4]; Postemergence, 31 g ai/ha
  Plant response rating (0 to 100), Foxtail, Green: 0
[4]; [18]
  Plant response rating, Foxtail, Green: 0
[4]; [19]
  Plant response rating, Foxtail, Green: 50
[4]; [20]
  Plant response rating, Foxtail, Green: 80
[4]; [21]
  Plant response rating, Foxtail, Green: 75
[4]; [22]
  Foxtail, Green plant response rating: 100
[5]; 31 g ai/ha
  Plant response rating (0 to 100), Lambsquarters: 0
[5]; 62 g ai/ha
  Plant response rating, Lambsquarters: 0
[5]; 125 g ai/ha
  Plant response rating, Lambsquarters: 0
[5]; 250 g ai/ha
  Plant response rating, Lambsquarters: 0
[6]; 62 g ai/ha, Preemergence, scale 0 to 100 (0 no effect, 100 complete control)
  Bermudagrass plant response rating: 100
[6]; [17]
  Bermudagrass plant response rating: 100
[6]; Postemergence, 31 g ai/ha
  Plant response rating (0 to 100), Bermudagrass: 0
[6]; [18]
  Plant response rating, Bermudagrass: 0
[6]; [19]
  Plant response rating, Bermudagrass: 0
[6]; [20]
  Plant response rating, Bermudagrass: 40
[6]; [21]
  Plant response rating, Bermudagrass: 100
[6]; [22]
  Bermudagrass plant response rating: 100
[7]; [16]
  Cupgrass, Woolly plant response rating: 100
[7]; [17]
  Cupgrass, Woolly plant response rating: 100
[7]; Postemergence, 31 g ai/ha
  Plant response rating (0 to 100), Cupgrass, Woolly: 0
[7]; [18]
  Plant response rating, Cupgrass, Woolly: 0
[7]; [19]
  Plant response rating, Cupgrass, Woolly: 0
[7]; [20]
  Plant response rating, Cupgrass, Woolly: 50
[7]; [21]
  Plant response rating, Cupgrass, Woolly: 60
[7]; [22]
  Cupgrass, Woolly plant response rating: 100
[8]; Postemergence, 125 g ai/ha
  Plant response rating, Morningglory: 30
[8]; [23]
  Morningglory plant response rating: 60
[8]; [24]
  Morningglory plant response rating: 30
[8]; Preemergence, 500 g ai/ha
  Plant response rating, Morningglory: 80
[9]; [16]
  Kochia plant response rating: 100
[9]; [17]
  Kochia plant response rating: 100
[9]; Postemergence, 31 g ai/ha
  Plant response rating (0 to 100), Kochia: 0
[9]; [18]
  Plant response rating, Kochia: 0
[9]; [19]
  Plant response rating, Kochia: 0
[9]; [20]
  Plant response rating, Kochia: 0
[9]; [21]
  Plant response rating, Kochia: 100
[9]; [22]
  Kochia plant response rating: 100
[10]; [16]
  Blackgrass plant response rating: 90
[10]; [17]
  Blackgrass plant response rating: 100
[10]; Postemergence, 31 g ai/ha
  Plant response rating (0 to 100), Blackgrass: 20
[10]; [18]
  Plant response rating, Blackgrass: 60
[10]; [19]
  Plant response rating, Blackgrass: 60
[10]; [21]
  Plant response rating, Blackgrass: 90
[10]; [22]
  Blackgrass plant response rating: 100
[11]; [16]
  Soybean plant response rating: 20
[11]; [17]
  Soybean plant response rating: 70
[11]; Postemergence, 31 g ai/ha
  Plant response rating (0 to 100), Soybean: 25
[11]; Postemergence, 62 g ai/ha
  Plant response rating (0 to 100), Soybean: 25
[11]; [19]
  Plant response rating, Soybean: 30
[11]; [20]
  Plant response rating, Soybean: 35
[11]; [21]
  Plant response rating, Soybean: 0
[11]; [22]
  Soybean plant response rating: 80
[12]; [25]
  Plant response rating, Rice: 0
[12]; [26]
  Plant response rating, Rice: 60
[13]; [16]
  Nutsedge, Yellow plant response rating: 98
[13]; [17]
  Nutsedge, Yellow plant response rating: 98
[13]; Postemergence, 31 g ai/ha
  Plant response rating (0 to 100), Nutsedge, Yellow: 0
[13]; [18]
  Plant response rating, Nutsedge, Yellow: 0
[13]; [19]
  Plant response rating, Nutsedge, Yellow: 0
[13]; [20]
  Plant response rating, Nutsedge, Yellow: 0
[13]; [21]
  Plant response rating, Nutsedge, Yellow: 0
[13]; [22]
  Nutsedge, Yellow plant response rating: 98
[14]; Postemergence, 125 g ai/ha
  Plant response rating, Pigweed: 70
[14]; [23]
  Pigweed plant response rating: 80
[14]; [24]
  Pigweed plant response rating: 50
[14]; Preemergence, 500 g ai/ha
  Plant response rating, Pigweed: 100
[15]; [25]
  Plant response rating, Ducksalad: 20
[15]; [26]
  Plant response rating, Ducksalad: 75
